Activity calls are given as the source filed them.
Tests used:
Trypsin [1] = molecular target: T1, Trypsin (Homo sapiens, UniProt P07477+P07478+P35030); assay: Inhibition of trypsin (unknown origin) using Boc-Val-Pro-Arg-AMC as substrate preincubated for 15 mins followed by substrate addition and measured for 15 mins by fluorimetric assay; assay type: protein assay
Prothrombin = Prothrombin (Homo sapiens, UniProt P00734); assay: Inhibition of thrombin (unknown origin) at 25 uM using Boc-Val-Pro-Arg-AMC as substrate preincubated for 15 mins followed by substrate addition and measured for 15 mins by fluorimetric assay; settings: 0.25 h
[2] = molecular target: Genome polyprotein (dengue virus type 2) (UniProt P29990); assay: Inhibition of Dengue virus serotype 2 NS2B-NS3 protease transfected in human HeLa cells at 12.5 uM measured after 24 hrs by Renilla-luciferase reporter gene assay relative to control; assay type: cell-based
Trypsin [3] = molecular target: T1, Trypsin; assay: Inhibition of trypsin (unknown origin) at 50 uM using Boc-Val-Pro-Arg-AMC as substrate preincubated for 15 mins followed by substrate addition and measured for 15 mins by fluorimetric assay relative to control; assay type: protein assay; settings: for inhibition at 0.25 h, 50 µM: trypsin (unknown origin), probe Boc-Val-Pro-Arg-AMC; for inhibition (INH): 0.25 h, 50 µM
[4] = molecular target: Genome polyprotein (West Nile virus) (UniProt P06935); assay: Inhibition of West Nile virus NS2B-NS3 protease expressed in Escherichia coli BL21 lambda (DE3) cells at 50 uM using Abz-Gly-Leu-Lys-Arg-Gly-Gly-3-(NO2)Tyr as substrate preincubated for 15 mins followed by substrate addition measured for 15 mins by fluorimetric analysis relative to control
Sequence of Genome polyprotein (West Nile virus) (P06935 whole entry): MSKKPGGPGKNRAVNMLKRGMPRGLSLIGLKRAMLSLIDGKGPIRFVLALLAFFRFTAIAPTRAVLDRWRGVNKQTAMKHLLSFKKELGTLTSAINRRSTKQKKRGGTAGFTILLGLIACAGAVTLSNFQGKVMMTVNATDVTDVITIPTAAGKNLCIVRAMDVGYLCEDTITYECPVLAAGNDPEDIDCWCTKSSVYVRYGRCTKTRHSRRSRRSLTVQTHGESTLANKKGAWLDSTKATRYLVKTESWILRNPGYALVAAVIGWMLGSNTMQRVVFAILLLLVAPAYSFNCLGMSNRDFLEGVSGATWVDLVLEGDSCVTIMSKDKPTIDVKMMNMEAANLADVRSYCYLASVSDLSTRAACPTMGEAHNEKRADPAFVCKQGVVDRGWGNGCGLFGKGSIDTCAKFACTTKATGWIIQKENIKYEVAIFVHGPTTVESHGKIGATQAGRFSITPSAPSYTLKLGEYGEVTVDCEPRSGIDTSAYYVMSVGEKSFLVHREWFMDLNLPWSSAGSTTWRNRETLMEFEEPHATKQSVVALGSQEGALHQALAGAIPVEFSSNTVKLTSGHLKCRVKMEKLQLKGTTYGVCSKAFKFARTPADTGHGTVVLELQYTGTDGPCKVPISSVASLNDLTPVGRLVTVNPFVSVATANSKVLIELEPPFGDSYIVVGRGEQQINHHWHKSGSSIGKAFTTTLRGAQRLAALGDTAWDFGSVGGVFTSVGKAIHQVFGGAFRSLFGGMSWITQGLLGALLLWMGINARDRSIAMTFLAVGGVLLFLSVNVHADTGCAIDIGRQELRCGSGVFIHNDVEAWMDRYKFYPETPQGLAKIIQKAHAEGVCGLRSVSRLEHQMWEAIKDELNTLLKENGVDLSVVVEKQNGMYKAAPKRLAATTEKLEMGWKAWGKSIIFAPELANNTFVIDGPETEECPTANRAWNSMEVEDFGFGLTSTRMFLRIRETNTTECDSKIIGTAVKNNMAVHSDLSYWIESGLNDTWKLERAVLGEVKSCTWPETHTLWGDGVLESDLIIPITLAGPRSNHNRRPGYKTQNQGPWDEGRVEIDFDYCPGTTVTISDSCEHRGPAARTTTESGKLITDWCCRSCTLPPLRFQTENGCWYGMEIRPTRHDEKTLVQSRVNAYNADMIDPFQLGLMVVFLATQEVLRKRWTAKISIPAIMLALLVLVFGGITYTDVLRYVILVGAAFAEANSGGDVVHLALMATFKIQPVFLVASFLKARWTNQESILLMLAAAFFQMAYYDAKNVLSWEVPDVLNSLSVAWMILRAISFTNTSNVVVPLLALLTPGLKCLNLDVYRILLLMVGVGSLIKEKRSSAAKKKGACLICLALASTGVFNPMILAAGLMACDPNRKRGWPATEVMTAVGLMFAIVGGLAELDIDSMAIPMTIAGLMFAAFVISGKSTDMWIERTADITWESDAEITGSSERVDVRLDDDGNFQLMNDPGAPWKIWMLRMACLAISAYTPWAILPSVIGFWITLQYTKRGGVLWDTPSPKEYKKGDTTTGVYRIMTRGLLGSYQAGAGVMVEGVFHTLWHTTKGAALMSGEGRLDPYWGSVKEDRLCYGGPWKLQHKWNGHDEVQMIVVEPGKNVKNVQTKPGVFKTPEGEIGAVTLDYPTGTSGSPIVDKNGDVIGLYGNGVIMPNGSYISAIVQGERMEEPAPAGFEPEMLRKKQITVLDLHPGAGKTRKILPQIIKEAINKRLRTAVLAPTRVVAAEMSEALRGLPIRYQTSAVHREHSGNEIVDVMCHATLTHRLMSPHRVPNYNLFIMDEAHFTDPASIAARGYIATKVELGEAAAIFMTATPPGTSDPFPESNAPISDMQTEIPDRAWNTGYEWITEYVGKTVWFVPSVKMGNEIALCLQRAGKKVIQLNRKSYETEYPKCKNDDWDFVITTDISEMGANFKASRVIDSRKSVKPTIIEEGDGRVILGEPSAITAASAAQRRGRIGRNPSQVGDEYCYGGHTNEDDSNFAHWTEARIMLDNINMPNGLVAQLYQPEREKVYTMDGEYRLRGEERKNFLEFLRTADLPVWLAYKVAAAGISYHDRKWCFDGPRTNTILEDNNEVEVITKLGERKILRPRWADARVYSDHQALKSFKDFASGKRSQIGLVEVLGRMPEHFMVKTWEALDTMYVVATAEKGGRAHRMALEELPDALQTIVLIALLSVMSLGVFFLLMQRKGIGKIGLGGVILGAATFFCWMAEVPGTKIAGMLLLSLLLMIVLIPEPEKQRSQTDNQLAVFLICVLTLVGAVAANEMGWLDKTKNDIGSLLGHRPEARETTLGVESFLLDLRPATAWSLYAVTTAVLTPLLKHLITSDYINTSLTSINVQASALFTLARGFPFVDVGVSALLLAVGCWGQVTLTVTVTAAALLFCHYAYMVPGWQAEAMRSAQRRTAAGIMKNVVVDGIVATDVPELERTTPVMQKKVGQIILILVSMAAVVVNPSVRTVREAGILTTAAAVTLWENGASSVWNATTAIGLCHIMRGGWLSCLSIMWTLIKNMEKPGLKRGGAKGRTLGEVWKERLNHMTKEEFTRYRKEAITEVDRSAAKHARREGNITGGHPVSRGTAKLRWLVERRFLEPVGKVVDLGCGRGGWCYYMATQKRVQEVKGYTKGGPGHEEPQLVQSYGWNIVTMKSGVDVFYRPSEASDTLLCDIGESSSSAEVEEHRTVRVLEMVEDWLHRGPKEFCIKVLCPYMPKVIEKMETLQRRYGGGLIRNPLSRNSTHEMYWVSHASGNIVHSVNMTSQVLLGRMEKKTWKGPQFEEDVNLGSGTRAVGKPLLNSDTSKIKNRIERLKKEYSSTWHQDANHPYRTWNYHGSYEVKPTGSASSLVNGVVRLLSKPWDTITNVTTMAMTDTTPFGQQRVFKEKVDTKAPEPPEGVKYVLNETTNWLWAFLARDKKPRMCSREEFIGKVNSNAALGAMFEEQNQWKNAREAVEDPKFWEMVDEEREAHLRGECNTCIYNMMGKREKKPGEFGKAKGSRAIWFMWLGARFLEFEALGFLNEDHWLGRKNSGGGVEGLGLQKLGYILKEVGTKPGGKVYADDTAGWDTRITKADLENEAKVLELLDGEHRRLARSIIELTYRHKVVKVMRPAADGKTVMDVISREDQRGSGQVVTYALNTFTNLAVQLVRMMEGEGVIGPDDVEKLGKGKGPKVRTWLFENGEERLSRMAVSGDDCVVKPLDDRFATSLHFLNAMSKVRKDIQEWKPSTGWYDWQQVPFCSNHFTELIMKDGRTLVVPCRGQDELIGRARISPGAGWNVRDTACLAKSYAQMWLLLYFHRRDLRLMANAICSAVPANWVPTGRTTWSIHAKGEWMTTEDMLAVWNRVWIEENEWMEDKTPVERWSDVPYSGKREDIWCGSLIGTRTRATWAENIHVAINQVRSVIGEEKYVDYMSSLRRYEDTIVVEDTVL

[5] = molecular target: Genome polyprotein (dengue virus type 2) (UniProt P29990); assay: Inhibition of Dengue virus serotype 2 NS2B-NS3 protease expressed in Escherichia coli BL21 lambda (DE3) cells at 50 uM using Abz-Nle-Lys-Arg-Arg-Ser-3-(NO2)Tyr as substrate preincubated for 15 mins followed by substrate addition and measured for 15 mins by FRET assay relative to control
[6] = Cytotoxicity against human HeLa cells assessed as reduction in cell viability measured after 24 hrs by celltiter-blue assay; assay type: cell-based
Genome polyprotein [7] = molecular target: T2, Genome polyprotein (dengue virus type 2, UniProt P29990); assay: Inhibition of Dengue virus serotype 2 NS2B-NS3 protease expressed in Escherichia coli BL21 lambda (DE3) cells using Abz-Nle-Lys-Arg-Arg-Ser-3-(NO2)Tyr as substrate preincubated for 15 mins followed by substrate addition and measured after 15 mins by HPLC analysis
Genome polyprotein [8] = molecular target: T2, Genome polyprotein; assay: Inhibition of Dengue virus serotype 2 NS2B-NS3 protease transfected in human HeLa cells measured after 24 hrs by Renilla-luciferase reporter gene assay; assay type: cell-based
[9] = molecular target: Genome polyprotein (dengue virus type 2) (UniProt P29990); assay: Inhibition of Dengue virus serotype 2 NS2B-NS3 protease expressed in Escherichia coli BL21 lambda (DE3) cells at 50 uM measured after 1 hr in presence of DENV protease inhibitor aprotinin by tryptophan fluorescence quenching method
[10] = molecular target: Genome polyprotein (dengue virus type 2) (UniProt P29990); assay: Inhibition of Dengue virus serotype 2 NS2B-NS3 protease expressed in Escherichia coli BL21 lambda (DE3) cells measured after 1 hr by tryptophan fluorescence quenching method
Genome polyprotein [11] = molecular target: T3, Genome polyprotein (West Nile virus, UniProt P06935); assay: Inhibition of West Nile virus NS2B-NS3 protease expressed in Escherichia coli BL21 lambda (DE3) cells using Abz-Gly-Leu-Lys-Arg-Gly-Gly-3-(NO2)Tyr as substrate preincubated for 15 mins followed by substrate addition measured after 15 mins by HPLC analysis
T3 sequence (P06935 1371-1501 limits assumed): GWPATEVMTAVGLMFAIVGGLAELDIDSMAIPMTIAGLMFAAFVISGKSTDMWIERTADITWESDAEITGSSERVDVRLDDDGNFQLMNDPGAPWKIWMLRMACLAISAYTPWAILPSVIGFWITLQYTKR
T3 sequence (P06935 1502-2120 limits assumed): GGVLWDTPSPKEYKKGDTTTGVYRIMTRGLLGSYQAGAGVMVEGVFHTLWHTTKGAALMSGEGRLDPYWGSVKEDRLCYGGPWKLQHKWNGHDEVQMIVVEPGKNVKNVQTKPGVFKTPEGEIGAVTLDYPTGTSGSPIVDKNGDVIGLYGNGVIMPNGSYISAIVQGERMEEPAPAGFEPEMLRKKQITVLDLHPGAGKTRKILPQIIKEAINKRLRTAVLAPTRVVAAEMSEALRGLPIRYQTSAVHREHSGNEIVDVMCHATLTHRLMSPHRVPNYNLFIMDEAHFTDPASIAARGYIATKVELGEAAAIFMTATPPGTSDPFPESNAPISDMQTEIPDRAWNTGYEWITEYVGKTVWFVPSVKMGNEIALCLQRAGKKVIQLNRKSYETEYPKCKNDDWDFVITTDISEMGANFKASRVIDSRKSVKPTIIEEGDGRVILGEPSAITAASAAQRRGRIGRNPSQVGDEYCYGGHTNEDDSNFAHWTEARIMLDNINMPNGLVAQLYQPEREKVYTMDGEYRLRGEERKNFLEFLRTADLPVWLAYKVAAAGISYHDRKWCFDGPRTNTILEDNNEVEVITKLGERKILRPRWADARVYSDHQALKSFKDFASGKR

[12] = molecular target: Genome polyprotein (dengue virus type 2) (UniProt P29990); assay: Inhibition of Dengue virus serotype 2 NS2B-NS3 protease expressed in Escherichia coli BL21 lambda (DE3) cells at 50 uM using Abz-Nle-Lys-Arg-Arg-Ser-3-(NO2)Tyr as substrate preincubated for 15 mins followed by substrate addition and measured after 15 mins by HPLC analysis relative to control
[13] = molecular target: Genome polyprotein (West Nile virus) (UniProt P06935); assay: Inhibition of West Nile virus NS2B-NS3 protease expressed in Escherichia coli BL21 lambda (DE3) cells at 50 uM using Abz-Gly-Leu-Lys-Arg-Gly-Gly-3-(NO2)Tyr as substrate preincubated for 15 mins followed by substrate addition measured after 15 mins by HPLC analysis relative to control
Genome polyprotein [14] = molecular target: T2, Genome polyprotein; assay: Inhibition of Dengue virus serotype 2 NS2B-NS3 protease expressed in Escherichia coli BL21 lambda (DE3) cells using Abz-Nle-Lys-Arg-Arg-Ser-3-(NO2)Tyr as substrate preincubated for 15 mins followed by substrate addition and measured for 15 mins by FRET assay
Genome polyprotein [15] = molecular target: T3, Genome polyprotein; assay: Inhibition of West Nile virus NS2B-NS3 protease expressed in Escherichia coli BL21 lambda (DE3) cells using Abz-Gly-Leu-Lys-Arg-Gly-Gly-3-(NO2)Tyr as substrate preincubated for 15 mins followed by substrate addition measured for 15 mins by fluorimetric analysis
[16] = molecular target: Genome polyprotein (dengue virus type 2) (UniProt P29990); assay: Competitive inhibition of Dengue virus serotype 2 NS2B-NS3 protease expressed in Escherichia coli BL21 lambda (DE3) cells using varying levels of Abz-Nle-Lys-Arg-Arg-Ser-3-(NO2)Tyr as substrate by Cheng-Prusoff plot analysis
[17] = Drug metabolism in pH 7 DENV2proHeLa medium assessed as racemization incubated for 96 hrs at 37 degC RP-HPLC analysis; assay type: physicochemical; settings: pH 7, 96 h
[18] = Drug metabolism in pH13 sodium hydroxide solution assessed as racemization incubated for 96 hrs at room temperature RP-HPLC analysis; assay type: physicochemical; settings: pH 13, 96 h
[19] = Permeability of the compound assessed as drug level in donor plate at 200 uM measured after 5 hrs at pH 7.4 by PAMPA; assay type: ADME; settings: pH 7.4, 5 h
[20] = Permeability of the compound assessed as mass retention at 200 uM measured after 5 hrs at pH 7.4 by PAMPA; assay type: ADME; settings: pH 7.4, 5 h
[21] = Drug metabolism in pH13 sodium hydroxide solution assessed as racemization incubated for 96 hrs at 37 degC RP-HPLC analysis; assay type: physicochemical; settings: pH 13, 96 h
[22] = Drug metabolism in pH 7.4 phosphate buffered saline assessed as racemization incubated for 96 hrs at 37 degC RP-HPLC analysis; assay type: physicochemical; settings: buffer, pH 7.4, 96 h
[23] = Permeability of the compound assessed as drug level in acceptor plate at 200 uM measured after 5 hrs at pH 7.4 by PAMPA; assay type: ADME; settings: pH 7.4, 5 h
[24] = molecular target: Genome polyprotein (West Nile virus) (UniProt P06935); assay: Competitive inhibition of West Nile virus NS2B-NS3 protease expressed in Escherichia coli BL21 lambda (DE3) cells using varying levels of Abz-Gly-Leu-Lys-Arg-Gly-Gly-3-(NO2)Tyr as substrate by Cheng-Prusoff plot analysis
Huh-7 = assay: Cytotoxicity against human HuH7 cells assessed as reduction in cell viability at 12 uM measured after 48 hrs by celltiter-blue assay; assay type: cell-based; settings: huh-7, 48 h
dengue virus type 2 [25] = assay: Antiviral activity against DENV2 infected in human HuH7 cells assessed as reduction in virus titer measured after 48 hrs; assay type: functional, organism-based; settings: Huh-7, 48 h
dengue virus type 2 [26] = assay: Antiviral activity against DENV2 infected in human HuH7 cells assessed as reduction in virus titer at 10 uM measured after 48 hrs relative to control; assay type: functional; settings: Huh-7, 48 h
[27] = Drug metabolism in pH 9 Tris-HCl buffer assessed as racemization incubated for 96 hrs at 37 degC RP-HPLC analysis; assay type: physicochemical; settings: pH 9, 96 h
[28] = Permeability of the compound at 200 uM measured after 5 hrs at pH 7.4 by PAMPA; assay type: ADME; settings: read-out: permeability

Structure (SMILES) | IC50 (Trypsin [1]) | inhibition (INH) (Prothrombin) | inhibition [2] | inhibition at 0.25 h, 50 µM (Trypsin [3]) | inhibition [4] | inhibition [5] | CC50 at 24 h [6] | EC50 (Genome polyprotein [8]) | inhibition (INH) (Trypsin [3]) | IC50 (Genome polyprotein [14]) | Ki (Genome polyprotein [14]) | IC50 (Genome polyprotein [15]) | inhibition [16] | also measured
CCCCCC(=O)N[C@H](C(=O)NCc1ccc(C(=N)N)cc1)c1ccc(OCc2ccccc2)cc1.O=C(O)C(F)(F)F | 45 µM | Not Active | 49.1% | > 50% | 39.4% | 20.6% | > 50 µM | – | – | – | – | – | – | –
N=C(N)Nc1ccc(CNC(=O)[C@@H](NC(=O)c2ccc(-c3cccs3)s2)c2ccc(OCc3ccccc3)cc2)cc1.O=C(O)C(F)(F)F | – | Not Active | 52.6% | – | – | – | > 50 µM | 9.3 µM | Not Active | – | – | – | – | IC50 (Genome polyprotein [7]): 6.3 µM; inhibition [9]: inactive; inhibition [10]: Dose-dependent effect; IC50 (Genome polyprotein [11]): 6.5 µM; inhibition [12]: 99.7%; inhibition [13]: 93.6%
CCCCCC(=O)N[C@@H](C(=O)NCc1ccc(NC(=N)N)cc1)c1ccc(OCc2ccccc2)cc1.O=C(O)C(F)(F)F | 44 µM | Not Active | 54.9% | > 50% | 34.2% | 49.9% | > 50 µM | 9.9 µM | – | – | – | – | – | –
CCCCCC(=O)N[C@H](C(=O)NCc1ccc(CN)cc1)c1ccc(OCc2ccccc2)cc1.O=C(O)C(F)(F)F | – | Not Active | – | – | 84.8% | 94.9% | 4.8 µM | – | Not Active | 4.9 µM | 3.8 µM | 8.2 µM | Active | –
CCCCCC(=O)N[C@H](C(=O)NCc1ccc(NC(=N)N)cc1)c1ccc(OCc2ccccc2)cc1.O=C(O)C(F)(F)F | – | Not Active | 79.8% | – | 102% | 95.1% | > 50 µM | 0.49 µM | Not Active | 11 µM | 9.8 µM | 13 µM | Active | Drug metabolism [17]: Metabolite_Notdetected; Drug metabolism [18]: Metabolite_Detected; Drug uptake [19]: 171 µM; R% [20]: 12%; Drug metabolism [21]: Metabolite_Detected; Drug metabolism [22]: Metabolite_Notdetected; Drug uptake [23]: 7.5 µM; inhibition [24]: Active; Ki (Genome polyprotein [15]): 12 to 12.4 µM; Activity (Huh-7): Non-Toxic; EC50 (dengue virus type 2 [25]): 0.89 µM; inhibition at 10 µM (dengue virus type 2 [26]): 84.5%; Drug metabolism [27]: Metabolite_Notdetected; Papp at 5 h, 200 µM [28]: 16 nm/s
N=C(N)Nc1ccc(CNC(=O)[C@@H](NC(=O)c2ccc(-c3ccccc3)cc2)c2ccc(OCc3ccccc3)cc2)cc1.O=C(O)C(F)(F)F | 31 µM | Not Active | 67% | > 50% | 99.4% | 101% | > 50 µM | 7.6 µM | – | 1.8 µM | – | 7.4 µM | – | –
N=C(N)Nc1ccc(CNC(=O)[C@@H](NC(=O)Cc2ccc(-c3ccccc3)cc2)c2ccc(OCc3c(Cl)cccc3Cl)cc2)cc1.O=C(O)C(F)(F)F | – | Not Active | 31.7% | – | 101% | 101% | > 50 µM | 39 µM | Not Active | 0.54 µM | 0.46 µM | 1.2 µM | Active | Drug uptake ([19]; BLD = below limit of detection): Bld; inhibition [24]: Active; Ki (Genome polyprotein [15]): 1 µM
CCCCCCCC(=O)N[C@H](C(=O)NCc1ccc(NC(=N)N)cc1)c1ccc(OCc2ccccc2)cc1.O=C(O)C(F)(F)F | – | Not Active | 71.4% | – | 104% | 100% | > 50 µM | 0.83 µM | Not Active | 4.8 µM | – | 11 µM | – | Drug uptake [19]: 164.5 µM; R% [20]: 17.3%; Drug uptake [23]: 1.5 µM; Activity (Huh-7): Non-Toxic; EC50 (dengue virus type 2 [25]): 7.2 µM; inhibition at 10 µM (dengue virus type 2 [26]): 57.7%; Papp at 5 h, 200 µM [28]: 3 nm/s

— ChEMBL document CHEMBL4619777, “A New Class of Dengue and West Nile Virus Protease Inhibitors with Submicromolar Activity in Reporter Gene DENV-2 Protease and Viral Replication Assays” (J Med Chem, 2020)
